88 sequences from the OligoGym collection can be followed below.

For this data set, the target named is HSD17B13. Particulars: ASO, HepaRG.

After the bases stand the sugars from the 5' end (letter, count) and the backbone: PS all phosphorothioate, else s phosphorothioate and o phosphodiester by linkage. Methylation of C is not given here. e = 2'-O-(2-methoxyethyl) (MOE); k = constrained ethyl (cEt); d = 2'-deoxy (DNA); m = 2'-O-methyl

Regarding “CCAACCAAACTTCCAG (sugars k3 d1 m1 d8 k3, PS)”, the target mRNA inhibition (1 µM) is 30%. With CCAACGACTCCAAGTA (sugars k3 d10 k3, PS), the target mRNA inhibition (1 µM) worked out at 20%.

In turn, CCAAGTAGGAGTAGAT (sugars k3 d10 k3, PS) displayed a target mRNA inhibition (1 µM) of 19%. In the case of CCAATACAGGCCATAA (sugars k3 d10 k3, PS), the target mRNA inhibition (1 µM) is 38%.

CCACATAGCTAACTCA (sugars k3 d10 k3, PS) registered a target mRNA inhibition (1 µM) of 53%.

CCACTTTTGGTGGACT (sugars k3 d10 k3, PS) had a target mRNA inhibition (1 µM) of 17%. On the same count and under the same terms, the same measure for CCAGAAGTATGTGAAC (sugars k3 d10 k3, PS): 8%. Take “CCAGTACAGTTCCTTT (sugars k3 d9 k3 e1, PS)”: the target mRNA inhibition is 10% (0.02 µM); 20% (0.078 µM); 43% (0.313 µM); 76% (1 µM); 73% (1.25 µM); 83% (5 µM). In the case of CCATAACCATAGGACA (sugars k3 d10 k3, PS), the target mRNA inhibition was 35% (0.02 µM); 13% (0.078 µM); 54% (0.313 µM); 63% (1 µM); 78% (1.25 µM); 91% (5 µM). As to CCATAATAATAGCTCT (sugars k3 d10 k3, PS), the target mRNA inhibition (1 µM) came out at 48%. The same measure, in the same setting: the same measure for CCATCCCCTAAGTTAT (sugars k3 d10 k3, PS): 14%; for CCATCTAGAATTAAGG (sugars k3 d10 k3, PS): 0%.

The sequence CCATCTATCAGACTTC (sugars k3 d10 k3, PS) gave a target mRNA inhibition (0.02 µM) of 0%; a target mRNA inhibition (0.078 µM) of 0%; a target mRNA inhibition (0.313 µM) of 20%; a target mRNA inhibition (1 µM) of 78%; a target mRNA inhibition (1.25 µM) of 63%; a target mRNA inhibition (5 µM) of 78%. For the setting “1 µM”, CCATGCAAAAGCATTC (sugars k3 d10 k3, PS) gave a target mRNA inhibition of 72%. Sequence CCCAACCCAAGCTACC (sugars k3 d10 k3, PS) yielded a target mRNA inhibition (1 µM) of 22%. The same measure, in the same setting: the same measure for CCCACAGAACCAATAT (sugars k3 d10 k3, PS): 16%; for CCCAGCATTATTCACC (sugars k3 d10 k3, PS): 19%. The sequence CCCCGAATTATTTCTT (sugars k3 d10 k3, PS) showed a target mRNA inhibition (1 µM) of 35%. In the case of CCCGCCCTTAAGTCAT (sugars k3 d10 k3, PS), the target mRNA inhibition (1 µM) amounted to 45%. The sequence CCCTAAGTTATTATCC (sugars k3 d10 k3, PS) returned a target mRNA inhibition (1 µM) of 25%.

Regarding CCCTGTGTAAATAAGT (sugars k3 d10 k3, PS), the target mRNA inhibition (1 µM) amounted to 41%. Still for that read-out and setting: the value for CCCTTAACAAACCTCC (sugars k3 d10 k3, PS) was 43%; that for CCCTTAGGAAAGCTCA (sugars k3 d10 k3, PS) was 37%; that for CCGCACACTGAAGCCA (sugars k3 d10 k3, PS) was 34%.

CCTAAGATAAAATTGC (sugars k3 d10 k3, PS) yielded a target mRNA inhibition (1 µM) of 18%.

For the setting “1 µM”, CCTATGAAAAACTACG (sugars k3 d10 k3, PS) came in with a target mRNA inhibition of 36%. Where the note is “1 µM”, CCTCCTTATTTGTTAG (sugars k3 d10 k3, PS) came in with a target mRNA inhibition of 41%. Consider “CCTCGATCCTATATAC (sugars kkdddddddddkekek, PS)”, for which, for the setting “1 µM”, the target mRNA inhibition stood at 3%. On to “CCTCUAAGTTAGCCCC (sugars k3 d1 m1 d8 k3, PS)”, for which the target mRNA inhibition (1 µM) came to 8%. Still for that read-out and setting: the value for CCTGCCTATTCCATGC (sugars k3 d10 k3, PS) was 24%; that for CCTGTGTAAATAAGTT (sugars k3 d10 k3, PS) was 18%. Same read-out and setting: the same measure for CCTTACCAGAATTTAC (sugars k3 d10 k3, PS): 63%; for CCTTACCTTGTGCTTG (sugars k3 d10 k3, PS): 20%; for CCTTAGGAAAGCTCAT (sugars k3 d10 k3, PS): 29%. Under “1 µM”, CCTTATACTGAAGGCT (sugars k3 d10 k3, PS) gave a target mRNA inhibition of 41%. Still for that read-out and setting: the value for CCTTATGATAATTTGG (sugars k3 d10 k3, PS) was 29%; that for CCTTGAATAGCAAGCC (sugars k3 d10 k3, PS) was 61%; that for CGAAACTATTCATATC (sugars k3 d10 k3, PS) was 66%. The same measure, in the same setting: the same measure for CGAATTTCTTCAAAGA (sugars k3 d10 k3, PS): 55%; for CGACTCCAAGTAGGAG (sugars k3 d10 k3, PS): 10%. Where the note is “1 µM”, “CGATCCTATATACATC (sugars kkdddddddddkekek, PS)” yielded a target mRNA inhibition of 29%. Under “1 µM”, CGATGGAAGAAGTGCT (sugars k3 d10 k3, PS) displayed a target mRNA inhibition of 3%. CGCATGCGCAGTGACG (sugars k3 d10 k3, PS) registered a target mRNA inhibition (1 µM) of 46%. In turn, CGGCACTCAGCTGCAG (sugars k3 d10 k3, PS) returned a target mRNA inhibition (1 µM) of 55%. Still for that read-out and setting: the value for CGGCTGGATATACTGT (sugars k3 d10 k3, PS) was 35%; that for “CGGTCACCTTTCATAA (sugars k3 d1 m1 d8 k3, PS)” was 42%.

Take “CGGTCACCTTTCATAA (sugars k3 d9 k3 e1, PS)”: the target mRNA inhibition (1 µM) came out at 67%. Same read-out and setting: the same measure for CGTGGCCGCACACTGA (sugars k3 d10 k3, PS): 42%. Regarding CGTTTAAATCAGAGCA (sugars k3 d10 k3, PS), under “1 µM”, the target mRNA inhibition came out at 54%. On the same count and under the same terms, the same measure for “CGTTTTGGGCTAATGA (sugars k3 d9 k3 e1, PS)”: 52%; for CTAAAACTGAAGGTCT (sugars k3 d10 k3, PS): 40%. On the same count and under the same terms, the value for “CTAAAATTGTCTAAAC (sugars k3 d9 k3 e1, PS)” was 7%.

Where the note is “1 µM”, “CTAAACATCTCTGGGA (sugars kkdddddddddkekek, PS)” had a target mRNA inhibition of 29%. With CTAAAGGTTTCTGTTG (sugars k3 d10 k3, PS), the target mRNA inhibition (1 µM) was 34%.

CTAAATTTCAGTACCC (sugars k3 d10 k3, PS) yielded a target mRNA inhibition (1 µM) of 33%.

As to “CTACACTAATATTGAG (sugars k3 d1 m1 d8 k3, PS)”, under “1 µM”, the target mRNA inhibition was 29%. CTAGAACACTTGCCTC (sugars k3 d10 k3, PS) gave a target mRNA inhibition (1 µM) of 25%. CTAGGAGATATAACAT (sugars k3 d10 k3, PS): the target mRNA inhibition (1 µM) stood at 40%. For the sequence CTAGGATGATGTTCAT (sugars k3 d10 k3, PS), the target mRNA inhibition (1 µM) was determined as 47%. The same measure, in the same setting: the same measure for CTAGGATGTTGACCTC (sugars k3 d10 k3, PS): 0%.

For “CTAGGGAAATCTTTCA (sugars kkdddddddddkekek, PS)”, under “1 µM”, the target mRNA inhibition was 46%. Same read-out and setting: the same measure for CTAGGGAGGAGGTACT (sugars k3 d10 k3, PS): 29%; for CTAGTTACAAACCACC (sugars k3 d10 k3, PS): 43%. For the sequence CTAGTTTTCGGCACTC (sugars k3 d10 k3, PS), the target mRNA inhibition (1 µM) was 33%. Same read-out and setting: the same measure for CTATAACTGGAAGGAG (sugars k3 d10 k3, PS): 43%; for CTATATAAATTCTGAC (sugars k3 d10 k3, PS): 0%; for CTATATACATCCAAGT (sugars k3 d10 k3, PS): 6%. For the sequence CTATGCAAGCCTTCAC (sugars k3 d10 k3, PS), the target mRNA inhibition (1 µM) worked out at 19%. On to CTATTAGTTGGCCTGC (sugars k3 d10 k3, PS), for which the target mRNA inhibition (1 µM) was found to be 32%.

CTCAAAGCCTGTTGGA (sugars k3 d10 k3, PS): the target mRNA inhibition (1 µM) came to 10%.

Sequence CTCAAATAGCCTTTTG (sugars k3 d10 k3, PS) gave a target mRNA inhibition (1 µM) of 64%.

On to CTCAAGGAGTACTTCA (sugars k3 d10 k3, PS), for which the target mRNA inhibition (0.02 µM) came out at 2%; the target mRNA inhibition (0.078 µM) was 2%; the target mRNA inhibition (0.313 µM) was 30%; the target mRNA inhibition (1 µM) is 82%; the target mRNA inhibition (1.25 µM) worked out at 78%; the target mRNA inhibition (5 µM) was determined as 95%.

With CTCAGAGTTCAGGCAA (sugars k3 d10 k3, PS), the target mRNA inhibition (1 µM) came out at 67%. Still for that read-out and setting: the value for CTCAGGCTGTAAGAGT (sugars k3 d10 k3, PS) was 21%; that for CTCCAAGTAGGAGTAG (sugars k3 d10 k3, PS) was 5%; that for CTCCAATACAGGCCAT (sugars k3 d10 k3, PS) was 20%.

For the setting “1 µM”, CTCCATAATAATAGCT (sugars k3 d10 k3, PS) showed a target mRNA inhibition of 59%. The sequence CTCCGTTATAAGTTTC (sugars k3 d10 k3, PS) displayed a target mRNA inhibition (1 µM) of 59%. Regarding CTCCTGGTACATGCCA (sugars k3 d10 k3, PS), the target mRNA inhibition (1 µM) came out at 47%. The sequence CTCCTTATGTTATCTC (sugars k3 d10 k3, PS) came in with a target mRNA inhibition (1 µM) of 57%. With CTCGCCTAAAGGAGAT (sugars k3 d10 k3, PS), where the note is “1 µM”, the target mRNA inhibition is 56%. Same read-out and setting: the value for CTCGCGAGATGATGTT (sugars k3 d10 k3, PS) was 40%; that for CTCTAAAGCAGGCTAC (sugars k3 d10 k3, PS) was 51%; that for “CTCTGGGACCAAGGAT (sugars k3 d9 k3 e1, PS)” was 62%. The same measure, in the same setting: the value for CTCTTAGCTGTGCACT (sugars k3 d10 k3, PS) was 53%. Still for that read-out and setting: the same measure for CTCTTATCTGATATGA (sugars k3 d10 k3, PS): 7%; for CTCTTCATCCTTGGTG (sugars k3 d10 k3, PS): 25%; for CTGAAATTGATACACC (sugars k3 d10 k3, PS): 67%.
